# How the values were obtained:
# [1] = tested on: tau phosphorylation following TTBK1 overexpression in HEK293 cells; assay: Western blot of tau phosphorylation in HEK293 cells overexpressing TTBK1 and human Tau (2N4R) plus or minus staurosporine; format: cell-based; settings: 10μM, one hour
# From the text: However, it is unclear whether TTBK1 directly phosphorylates tau at these sites or whether it enhances the phosphorylation of tau through the activation of other kinases. […]; Fig 1A). […]. TTBK1 overexpression led to the increase in tau phosphorylation at several sites; some previously identified including S422, AT8 ([…]) and S198 as well as additional novel sites like AT180 (Thr231), PHF-13 (S396), S214, and S356 (Fig 1B and 1C). […].
# Fig 1 TTBK1 overexpression leads to direct and indirect phosphorylation of Tau at disease-relevant sites. (A) Phylogenetic tree of the human kinome illustrating the biochemical IC50 for Staurosporine against various kinases (data compiled from Davis et al., 2011 in addition to internal data on the affinity of Staurosporine for TTBK1/TTBK2). […] TTBK1 overexpression caused a dramatic increase in the overall level of tau phosphorylation. […]. HEK293 cells obtained from American Type Culture Collection (ATCC, Manassas, VA) were cultured in Dulbecco's modified Eagle's medium (DMEM) supplemented with 10% fetal bovine serum (FBS), 10 units/ml penicillin, and 10μg/ml streptomycin (all reagents were purchased from Gibco, Waltham, MA). Cell cultures were maintained in a humidified 5% (v/v) CO2/air environment at 37°C. When the cells reached 50–80% confluence, they were transfected with a complex consisting of a 3:1 ratio of FuGENE 6 Transfection Reagent (Promega, Madison, WI) and plasmid DNA. Plasmid DNA was balanced out across reactions using an empty plasmid so that the same amount of DNA was added per well. This transfection complex was prepared following the manufacturers protocol and added directly to the cell media for 24 or 48 hours prior to lysis.
# Samples were lysed in Pierce RIPA lysis and extraction buffer (Thermo Fisher Scientific, Waltham, MA) supplemented with 1% Halt protease and phosphatase inhibitor cocktail (Thermo Fisher Scientific, Waltham, MA) and centrifuged at 14000 x g for 20 min at 4°C to clear the lysate. Protein concentrations were determined using the Direct Detect Infrared Spectrometer (EMD Millipore Corp., Burlington, MA) and 10μg of each sample was denatured in 6X SDS sample buffer (Boston Bioproducts, Ashland, MA) for 7 minutes at 90°C. Proteins were loaded into a Criterion 7.5% tris-glycine gel (Bio-Rad, Hercules, CA) and separated by SDS-PAGE at 120V for 120 minutes. The gel was transferred to an IBlot2 nitrocellulose membrane (Invitrogen, Carlsbad, CA), blocked with TBST blocking buffer (Li-cor Biosciences, Lincoln, NE) for 1 hour, and washed three times with TBST. The membrane was probed with primary antibodies (1:1000 dilution) in antibody dilution buffer (1:1 TBST blocking buffer and 1X TBST) overnight at 4°C. The following antibodies were used for immunoblotting: TTBK1 (Cat# PA5-20686, Invitrogen, Carlsbad, CA), Tau-5 (Cat# ab80579, Abcam, Cambridge, UK), phospho-Tau S422 (Cat# ab79415, Abcam, Cambridge, UK), S198 (Cat# ab79540, Abcam, Cambridge, UK), AT8 S202/T205 (Cat# MN1020, Invitrogen, Carlsbad, CA), S214 (Cat# ab170892, Abcam, Cambridge, UK), AT180 T231 (Cat# MN1040, Invitrogen, Carlsbad, CA), S262 (Cat# ab131354, Abcam, Cambridge, UK), S356 (Cat# ab75603, Abcam, Cambridge, UK), S396 (Cat# ab109390, Abcam, Cambridge, UK), GAPDH (Cat# 5174S, Cell Signaling Technology, Danvers, MA), and β-actin (Cat# 926–42212, Li-cor Biosciences, Lincoln, NE). The blot was then washed in triplicate with TBST and incubated for 1 hour with secondary antibody (1:10,000 dilution of IRDye 800 anti-mouse IgG and IRDye 680 anti-rabbit IgG, Li-cor Biosciences, Lincoln, NE) in antibody dilution buffer. After a final triplicate wash with TBST, the blot was visualized using the Odyssey CLx imaging system (Li-cor Biosciences, Lincoln, NE).
# [2] = target: T1, TTBK1 (Homo sapiens, UniProt Q5TCY1); assay: TTBK biochemical (recombinant kinase) assay
# T1 construct: TTBK1 1-479aa; SignalChem Catalog # T17-11G-05; purchased SignalChem T17-11G-05
# T1 sequence (Q5TCY1 1-479): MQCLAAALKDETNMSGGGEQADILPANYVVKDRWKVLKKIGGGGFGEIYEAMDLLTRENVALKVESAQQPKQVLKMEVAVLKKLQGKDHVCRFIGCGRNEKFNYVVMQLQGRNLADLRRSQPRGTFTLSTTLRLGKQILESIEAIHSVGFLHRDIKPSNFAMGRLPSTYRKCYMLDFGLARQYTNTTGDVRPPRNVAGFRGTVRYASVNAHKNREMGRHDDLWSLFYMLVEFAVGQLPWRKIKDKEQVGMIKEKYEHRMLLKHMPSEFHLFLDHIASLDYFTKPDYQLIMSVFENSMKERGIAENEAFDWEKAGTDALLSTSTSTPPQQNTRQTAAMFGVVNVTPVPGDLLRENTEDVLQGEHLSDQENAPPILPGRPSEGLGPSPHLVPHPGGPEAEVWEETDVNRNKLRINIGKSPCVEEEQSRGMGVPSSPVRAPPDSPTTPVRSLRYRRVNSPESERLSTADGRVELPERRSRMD
# Procedure: Final Kinase Activity conditions; 400 pM TTBK1 at ambient temperature in 25 mM Hepes, pH 7.5, 50 mM NaCl, 10 mM MgCl2, 0.02% Brij-35, 1 mM DTT, 10 uM ATP and 100 nM Ulight TOPO IIa peptide substrate ([sequence]). After a 2 hour incubation at 23 °C, the kinase reaction was quenched with 30 ul of 60 mM EDTA, and 2 nM Eu-anti- FDEKpTDDEDF antibody in 1X Lance Delfia Detection Buffer and incubated for one hour prior to detection with the EnVision Multilabel Reader (PerkinElmer). […] For compound inhibition, 15 ul of 800 pM TTBK1 was preincubated for 30 minutes with 300 nl of 100x compound stock in DMSO before initiation of the activity by addition of 15 ul of 2x Substrate Stock (200 nM peptide and 20 uM ATP).
compound,measurement,setting,value
"CN[C@@H]1C[C@H]2O[C@@](C)([C@@H]1OC)n1c3ccccc3c3c4c(c5c6ccccc6n2c5c31)C(=O)NC4 [Staurosporine, staurosporine]",increase in tau phosphorylation at AT8 following TTBK1 overexpression,[1],not inhibited
same,increase in tau phosphorylation at S198 following TTBK1 overexpression,[1],not inhibited
same,increase in tau phosphorylation at S422 following TTBK1 overexpression,[1],not inhibited
same,phosphorylation of tau at AT180,[1],reduced
same,phosphorylation of tau at S214,[1],reduced
same,phosphorylation of tau at S356,[1],reduced
same,phosphorylation of tau at S396,[1],reduced
same,IC50,[2],> 30 µM
